According to ChEMBL document CHEMBL3507680, “University of Dundee, Gates Library screen for HepG2 cell viability”:

Test: Human HepG2 cell viability assay in 384 well format
Format: toxicity, cell-based
Design: dose 125 nL, time 70.5 hour; concentration not given beside the values
Conditions: HepG2 cells, read-out: Inhibition

SMILES	cytotoxicity at 70.5 h [%]
CN(C)CCNC(=O)c1nc2c(s1)CCCN2C(=O)C1CC1	-2.21
COCC(=O)N1CCCn2c(CN3CCCC3)nnc2C1	-4.43
Cc1[nH]ncc1CCCNC(=O)Nc1ccc(C#N)cc1	-4.85
O=C1CCNc2ncc(-c3cccc(Cl)c3)cc2CN1C1CC1	-1.89
CC(C)(C)C1CCC(O)(CNC(=O)CCS(C)(=O)=O)CC1 (stereo unspecified)	-4.23
Cc1c(CN2CCCC(C(=O)c3ccc(C(C)(C)C)cc3)C2)cnn1C (stereo unspecified)	-4.49
CCO[C@H]1CC[C@H]2[C@H]1OCCN2C(=O)c1nn(C)c2ccccc12	0.53
CN(C(=O)CN1CCC(c2cc3ccccc3[nH]2)CC1)C(C)(C)C#N	-16.1
CN(C)C(=O)C1CCCN(C(=O)c2ccccc2-n2cc(CN)cn2)C1 (stereo unspecified)	48.5
CS(=O)(=O)N1CCc2sc(C(=O)NCc3ccncc3)cc21	-7.65
Cc1cccc(NC(=O)CN(C)C(=O)c2ccc(OC(C)C)nc2)n1	-2.88
Cc1nn(C)c2cn(CC(=O)N3CCN(c4ccccn4)CC3)nc12	5.73
C=Cc1ccc(C(=O)N2CCCC(Nc3ccc(F)cc3)C2)cc1 (stereo unspecified)	17
CC(C(=O)NCc1ccc(-n2cncn2)nc1)n1ccnc1 (stereo unspecified)	-18
Cc1nn(CN(CC(C)C)C2CC2)c(=O)c2noc(C)c12	14.5
O=C(O)[C@H]1OCC(=O)N(Cc2cccc(F)c2)[C@@H]1c1ccc(Cl)cc1	-9.16
CC(C)(C)c1nc(CC(=O)NCCC(=O)Nc2ccncc2)cs1	5.09
CCN(CCO)C(=O)C1CCC(=O)N(CCc2cccc(F)c2)C1 (stereo unspecified)	-1.58
CCN1C[C@H]2CCN(C(=O)C3CCCO3)CC[C@H]2S1(=O)=O (stereo partly specified)	-7.09
COC[C@@]12CC[C@@H](N3CCOCC3)C[C@H]1CCN(c1nc(CO)cs1)C2	10.8
O=C(NC[C@]12COC[C@H]1CN(Cc1cccnc1)C2)c1ccno1	-14.7
CC(C)CN1CCC2(CC(C(=O)NCc3cccnc3)=NO2)C1 (stereo unspecified)	-5.8
O=C(c1ccsc1)N1CCO[C@@H]2CN(Cc3cccs3)C[C@@H]2C1	-6.05

SMILES	cytotoxicity at 70.5 h [%]
CC/C=C(\C)CN1CCC(CNC(=O)c2ccnc(N)c2)C1 (stereo unspecified)	15
CCCc1n[nH]c(C2CN(C(=O)c3n[nH]c4ccccc34)CCO2)n1 (stereo unspecified)	-6.7
Cc1cc(C(=O)N2CCCC2c2nnc3n2CCCCC3)no1 (stereo unspecified)	-7.37
Cc1cnc(N2CCC[C@@H]3CN(CC(=O)N(C)C)C[C@@H]32)nc1	-6.11
Cc1oc(C)c(C(=O)NCc2cccnc2)c1C	-14.1
COCc1nc(C2CC2)nn1-c1ccccc1Cl	-2.98
COc1ccc(CN(C(=O)C2CCOCC2)c2ccncc2)cc1	-10.6
Cc1csc(N2CCCN(C(=O)C(C(C)C)n3cncn3)CC2)n1 (stereo unspecified)	2.24
COc1ccc(-n2ncc(C(C)NC3CCSCC3)c2C)cc1 (stereo unspecified)	-4.41
c1ncn(CC2CCCN(Cc3csc(-c4ccsc4)n3)C2)n1 (stereo unspecified)	2.18
COCCNC(=O)N1CCN(c2cc(F)ccc2F)CC1	-10.1
Cc1cccc(CN2CCC3(CCCN(Cc4cnn(C)c4)C3)C2=O)n1 (stereo unspecified)	-18.3
CCOCCC(=O)Nc1cccc(Cl)c1C(N)=O	-0.685
CCn1ccnc1CN1CCCN(C(=O)c2cccc(C#N)c2)CC1	-15.8
CN1C(=O)CC(c2cnn(C)c2)C12CCN(C(=O)c1ccco1)CC2 (stereo unspecified)	-6.73
COc1ccc(CNC(Cn2cncn2)c2ccccc2)cc1O (stereo unspecified)	-0.077
CNC(=O)c1nc(CC(=O)Nc2ccc3cc[nH]c3c2)no1	-13.1
Cc1cccnc1CN(C)CC1(O)CCCN(CC2CCCCC2)C1=O (stereo unspecified)	18.2
CC(=O)c1ccc(C(=O)N2C[C@@H]3CC[C@H](C2)N(CC2CCC2)C3)s1	-3.03
COCCn1cc(C(=O)N2CCCC2c2cccc(F)c2)ccc1=O (stereo unspecified)	-4.27
Cn1cc(CN2CCC3(CCCCN3S(C)(=O)=O)CC2)cn1	-11.7
CC1(C)CC1C(=O)NS(=O)(=O)Cc1cc(-c2ccccc2)no1 (stereo unspecified)	-1.85
Cn1cc(CN2CCC3(CCCN3Cc3cccnc3)CC2)cn1	-3.83

SMILES	cytotoxicity at 70.5 h [%]
COc1ccc(C)cc1C(=O)N1CCCC(n2cncn2)C1 (stereo unspecified)	-3.25
Cc1ccc(CN2CCCC(c3cncc(C)n3)C2)cn1 (stereo unspecified)	-2.94
COCC(=O)N1CCCCC1c1ccnc(Nc2cnccn2)n1 (stereo unspecified)	-7.98
CC(C)(C)OC(=O)NC1CCCN(Cc2cccs2)C1 (stereo unspecified)	6.34
O=C(CCn1ccccc1=O)Nc1ccc(I)cc1	-10.5
CC(C)CSCCCNC(=O)C1CCOC1 (stereo unspecified)	-5.76
CCN(C(=O)CN1CCC(c2ccccc2)C1)C1CC1 (stereo unspecified)	0.241
Cn1cc(C(=O)N2CC[C@@H]3[C@@H]2CCN3Cc2cccnc2)cn1	-14.5
Cc1nc2c(c(N3CCC(CCn4cccn4)CC3)n1)CCNCC2	-2.46
O=C(NCC1(N2CCOCC2)CCSC1)Nc1ccccn1 (stereo unspecified)	-9.14
CCCc1n[nH]c(C2CN(C(=O)CCn3nc(C)cc3C)CCO2)n1 (stereo unspecified)	0.729
Cc1cccc(CSc2nnc(C)n2CC(N)=O)c1	-91.2
Cc1ccccc1C(C)(C)CNC(=O)CCSc1nnnn1C	-1.67
CCc1cc(C(=O)N2CCC(c3cc4ncccc4cn3)CC2)no1	18.3
c1ccc(CO[C@@H]2CN(Cc3ccoc3)[C@@H]3COC[C@@H]32)nc1	13
c1cc2c(cc1C1(CNC3=NCCN3)CCCC1)OCCO2	-3.87
Cc1cnn(CC2CN(CCS(=O)(=O)c3ccccc3)CCO2)c1 (stereo unspecified)	-9.7
O=C(Nc1cccs1)N(CCO)CCOCC(F)(F)F	6.76
CN(CCC1CCOCC1)C(=O)C1CCC(=O)N(Cc2ccccn2)C1 (stereo unspecified)	13.4
CC(C)(C)CN1CCCC12Cc1ccccc1CNC2=O (stereo unspecified)	-7.71
CCc1noc(CN(CC)Cc2cc3cc(C)ccc3[nH]c2=O)n1	-10.7
CCc1ncc2c(n1)CN(Cc1nc(-c3cccs3)no1)CC2	-13
Cc1ccc(Nc2nccc(C3CCN(C(=O)CN)C3)n2)nc1 (stereo unspecified)	-5.12

SMILES	cytotoxicity at 70.5 h [%]
CC(C)(C)NC(=O)NC(=O)CNc1c(F)cccc1N1CCCC1	-5.38
COc1ccc2c(OCC(=O)NC(C)(C)C)ccnc2c1	-18.7
CCN1C(=O)C[C@@H]2[C@@H]1CCN2S(=O)(=O)Cc1ccc(C)cc1	1.97
CCc1cc(O)nc(C2CCCN(Cc3ccncc3)C2)n1 (stereo unspecified)	-1.03
CCNC(=O)CCN1CCC(c2cc(N3CCOCC3)nc(C)n2)CC1	-7.37
Cc1cc(C(=O)N2CCN(C(=O)CC(C)C)[C@@H]3CS(=O)(=O)C[C@@H]32)no1	-11.9
Cc1nc(CCNC(C)c2ccc3c(c2)OCCCO3)cs1 (stereo unspecified)	0.884
Cn1cccc(NC(=O)NCCc2cccc(O)c2)c1=O	9.38
CCC(C(=O)NCC1CCN(c2ccncc2)CC1)N(C)C (stereo unspecified)	-7.96
c1ccc(OCCN2CCCCC2Cn2cncn2)cc1 (stereo unspecified)	23.7
O=C(Cc1ccc(F)cc1)N1CCn2c(Cn3cncn3)cnc2C1	-1.65
CCCN(C(=O)c1cnc(C)cn1)c1nc2c(s1)CCc1c-2cnn1C	14.9
Cc1ccsc1-c1cc(C(=O)O)cc(S(=O)(=O)NCc2ccccn2)c1	-9.5
Cc1cccc(CN2CC[C@@H]3[C@@H]2CCN3C(=O)c2cnoc2C)n1	0.0209
O=C(NC1CCCc2nc(N3CCOCC3)ncc21)C1CCCC1 (stereo unspecified)	-4.32
Cc1nn(C)c(N(C)C)c1CNCCCN(C(C)C)S(C)(=O)=O	8.55
CC(C)c1cc(C(=O)NCC2(C(N)=O)CCOCC2)nn1C(C)(C)C	-4.75
CSc1ccc(C)c(C(=O)N2CCCC(n3cncn3)C2)c1 (stereo unspecified)	-2.61
NC(=O)CC1CCN(c2ncnc3cccc(F)c23)CC1	-3.61
CC(NC(=O)CCC1CCCCC1)c1nnc2n1CCC2 (stereo unspecified)	-4.91
Cn1c(CO)nnc1CC1CCN(Cc2ccc(C#N)cc2)CC1	-1.35
CC(C)(C)c1cc(CN2C[C@H]3CC[C@@H]2CN(Cc2cscn2)C3)n[nH]1	13.7
CC(NC(N)=O)C(=O)N(C)Cc1cccc(C(F)(F)F)c1 (stereo unspecified)	10.7

SMILES	cytotoxicity at 70.5 h [%]
O=C(c1ccsc1)N1CCC(c2nnc(C3CC3)o2)CC1	28.3
Cc1cc(C(=O)N(C)Cc2ccoc2)c(NC(=O)C(C)(C)C)s1	-3.77
CC(=O)N(C)[C@H]1CC[C@]2(CC1)CNC(=O)c1cc(C)ccc1O2	-11.3
Cn1cnc2c1C(COCC1CCOCC1)CN(c1ncccn1)C2 (stereo unspecified)	-11.3
N#Cc1ccsc1N1CCC(Sc2ncc[nH]2)C1=O (stereo unspecified)	-7.58
CCN(Cc1cccc(-c2ccncc2)c1)S(C)(=O)=O	-4.62
CN(C(=O)c1cccc(C(=O)NCC(F)(F)F)c1)c1ccccc1	10.6
O=C1CCCC2(CCN(C(=O)c3cnccn3)CC2)N1	-4.91
O=C1CCc2cc(S(=O)(=O)NCc3cc4n(n3)CCCNC4)ccc2N1	-12.2
Cc1ccc(N2CCCC(NCc3cccs3)C2)nn1 (stereo unspecified)	-1.01
Cc1cccc(C(=O)N2C[C@@H]3[C@H](CC(=O)Nc4cccnc4)[C@@H]3C2)n1	-14.3
O=C(NC[C@]1(O)CN(Cc2ccc(F)cc2)C[C@H]1O)c1ccccn1	-6.05
CN(Cc1ccccn1)C1COC2(CCN(Cc3nccs3)CC2)C1 (stereo unspecified)	15.3
O=S(=O)(NCC1CCN(c2cnccn2)CC1)C1CC1	30.4
COc1ccc(CCN2CC(NCc3ncc[nH]3)CC2=O)cc1 (stereo unspecified)	-7.01
COc1ccc(CN(C(=O)CCC(C)C)c2cnn(C)c2)c(OC)c1	-4.57
Cc1nccc(CNC(=O)NCCOc2ccc(F)c(F)c2)n1	-2.22
C[S+](C)[c-]1c(=O)[nH]c(=O)n(CCc2ccc(F)cc2)c1=O	-2.07
CCN1CCCN(S(=O)(=O)c2cc3ccccc3o2)CC1	-4.88
